Measurements: the supplement of paper PMC11451515

System: SEM cells
Test: cell viability relative to DMSO control; higher = less cytotoxic
Conditions: 48 h
How it was run: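 Viability is a per-plate percentage relative to DMSO wells, with cell-free wells as background. CellTiter-Glo One luminescence was read after 48 h at 37°C on 1536-well plates (5 μl) of NOMO1 or SEM (500 cells/well) or P12-Ichikawa (1000 cells/well) leukemia cells. The cells had been adapted for at least four passages in each medium and pin-dosed with library compounds in DMSO from 47 μM to 0.79 nM in 11 threefold steps.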

[1] = HPLM + 10% dialyzed FBS, 0.000781 µM
[2] = HPLM + 10% dialyzed FBS, 0.00234 µM
[3] = HPLM + 10% dialyzed FBS, 0.00702 µM
[4] = HPLM + 10% dialyzed FBS, 0.0211 µM
[5] = HPLM + 10% dialyzed FBS, 0.0632 µM
[6] = HPLM + 10% dialyzed FBS, 0.19 µM
[7] = HPLM + 10% dialyzed FBS, 0.569 µM
[8] = HPLM + 10% dialyzed FBS, 1.71 µM
[9] = HPLM + 10% dialyzed FBS, 5.12 µM
[10] = HPLM + 10% dialyzed FBS, 15.4 µM
[11] = HPLM + 10% dialyzed FBS, 46.1 µM
[12] = RPMI 5 mM glucose + 10% FBS, 0.000781 µM
[13] = RPMI 5 mM glucose + 10% FBS, 0.00234 µM
[14] = RPMI 5 mM glucose + 10% FBS, 0.00702 µM
[15] = RPMI 5 mM glucose + 10% FBS, 0.0211 µM
[16] = RPMI 5 mM glucose + 10% FBS, 0.0632 µM
[17] = RPMI 5 mM glucose + 10% FBS, 0.19 µM
[18] = RPMI 5 mM glucose + 10% FBS, 0.569 µM
[19] = RPMI 5 mM glucose + 10% FBS, 1.71 µM
[20] = RPMI 5 mM glucose + 10% FBS, 5.12 µM
[21] = RPMI 5 mM glucose + 10% FBS, 15.4 µM
[22] = RPMI 5 mM glucose + 10% FBS, 46.1 µM

For `C[C@H](O)[C@H]1[C@@H]2[C@H](C)C(=C(\N2C1=O)C(O)=O)/S[C@@H]3CN[C@H](CN[S+](N)([O-])=O)C3`, the cell viability [1] was 116%, the cell viability [2] was 121% and the cell viability [3] was 122%. It also gave a cell viability [4] of 130%, a cell viability [5] of 132% and a cell viability [6] of 113%. For the same compound, the cell viability [7] was 108%, the cell viability [8] was 108% and the cell viability [9] was 100%. It also gave a cell viability [10] of 108%, a cell viability [11] of 111% and a cell viability [12] of 124%. It also gave a cell viability [13] of 123%, a cell viability [14] of 136% and a cell viability [15] of 128%. The cell viability [16] was 132%, the cell viability [17] was 115% and the cell viability [18] was 125%. For the same compound, the cell viability [19] was 112%, the cell viability [20] was 120% and the cell viability [21] was 118%. The cell viability [22] was 109%.

`CC(N[C@H]1C[C@@H]1c1ccccc1)c1ccc2c(c1)OCCO2` (some centres not stated) was tested, and the cell viability [1] was 111%, the cell viability [2] was 135% and the cell viability [3] was 116%. For the same compound, the cell viability [4] was 122%, the cell viability [5] was 110% and the cell viability [6] was 122%. It also gave a cell viability [7] of 126%, a cell viability [8] of 126% and a cell viability [9] of 141%. It also gave a cell viability [10] of 116%, a cell viability [11] of 109% and a cell viability [12] of 99.3%. The cell viability [13] was 95.1%, the cell viability [14] was 94.7% and the cell viability [15] was 97.7%. It also gave a cell viability [16] of 107%, a cell viability [17] of 100% and a cell viability [18] of 108%. The cell viability [19] was 110%, the cell viability [20] was 107% and the cell viability [21] was 98.4%. The cell viability [22] was 93.5%, the cell viability (RPMI 5 mM glucose + 10% dialyzed FBS, 0.000781 µM) was 121% and the cell viability (RPMI 5 mM glucose + 10% dialyzed FBS, 0.00234 µM) was 123%. For the same compound, the cell viability (RPMI 5 mM glucose + 10% dialyzed FBS, 0.00702 µM) was 100%, the cell viability (RPMI 5 mM glucose + 10% dialyzed FBS, 0.0211 µM) was 121% and the cell viability (RPMI 5 mM glucose + 10% dialyzed FBS, 0.0632 µM) was 110%. It also gave a cell viability (RPMI 5 mM glucose + 10% dialyzed FBS, 0.19 µM) of 134%, a cell viability (RPMI 5 mM glucose + 10% dialyzed FBS, 0.569 µM) of 138% and a cell viability (RPMI 5 mM glucose + 10% dialyzed FBS, 1.71 µM) of 111%. It also gave a cell viability (RPMI 5 mM glucose + 10% dialyzed FBS, 5.12 µM) of 119%, a cell viability (RPMI 5 mM glucose + 10% dialyzed FBS, 15.4 µM) of 119% and a cell viability (RPMI 5 mM glucose + 10% dialyzed FBS, 46.1 µM) of 92.6%.

With `CC1=NN(c2ccc(C)c(C)c2)C(=O)/C1=N/Nc1cccc(-c2cccc(C(=O)O)c2)c1O` the cell viability [1] was 121%, the cell viability [2] was 119% and the cell viability [3] was 125%. For the same compound, the cell viability [4] was 128%, the cell viability [5] was 111% and the cell viability [6] was 117%. It also gave a cell viability [7] of 120%, a cell viability [8] of 119% and a cell viability [9] of 109%. It also gave a cell viability [10] of 97.6%, a cell viability [11] of 75.3% and a cell viability [12] of 124%. For the same compound, the cell viability [13] was 122%, the cell viability [14] was 128% and the cell viability [15] was 130%. The cell viability [16] was 129%, the cell viability [17] was 122% and the cell viability [18] was 123%. For the same compound, the cell viability [19] was 122%, the cell viability [20] was 121% and the cell viability [21] was 90.4%. It also gave a cell viability [22] of 54.7%.
